{"source": "ChEMBL document CHEMBL5226375", "about": "“Synthesis and Comprehensive in Vivo Activity Profiling of Olean-12-en-28-ol, 3β-Pentacosanoate in Experimental Autoimmune Encephalomyelitis: A Natural Remyelinating and Anti-Inflammatory Agent” (J Nat Prod, 2023)", "key": {"Mus musculus [1]": {"test_system": "Mus musculus", "test": "Anti-inflammatory activity against MOG35-55-induced experimental autoimmune encephalomyelitis C57BL/6 mouse model assessed as fold change in STAT3 gene expression in brain at 0.3 mg/kg/day, ig for 14 days starting from 12th day of immunization by RT-qPCR analysis relative to control", "type": "functional", "details": "time 14 day"}, "Mus musculus [2]": {"test_system": "Mus musculus", "test": "Anti-inflammatory activity against MOG35-55-induced experimental autoimmune encephalomyelitis C57BL/6 mouse model assessed as fold change in GFAP gene expression in brain at 0.3 mg/kg/day, ig for 14 days starting from 12th day of immunization by RT-qPCR analysis relative to control", "type": "functional", "details": "time 14 day"}, "Mus musculus [3]": {"test_system": "Mus musculus", "test": "Anti-inflammatory activity against MOG35-55-induced experimental autoimmune encephalomyelitis C57BL/6 mouse model assessed as fold change in MBP gene expression in brain at 0.15 mg/kg/day, ig for 14 days starting from 12th day of immunization by RT-qPCR analysis relative to control", "type": "functional", "details": "time 14 day"}, "Mus musculus [4]": {"test_system": "Mus musculus", "test": "Anti-inflammatory activity against MOG35-55-induced experimental autoimmune encephalomyelitis C57BL/6 mouse model assessed as fold change in IL6 gene expression in brain at 0.15 mg/kg/day, ig for 14 days starting from 12th day of immunization by RT-qPCR analysis relative to control", "type": "functional", "details": "time 14 day"}, "Mus musculus [5]": {"test_system": "Mus musculus", "test": "Anti-inflammatory activity against MOG35-55-induced experimental autoimmune encephalomyelitis C57BL/6 mouse model assessed as proportion of brain infiltrating cells expressing CD45+/CD11b/c high surface markers at […]/day, ig for 14 days starting from 12th day of immunization by flow cytometry (reference value: 87.7%)", "type": "functional", "details": "time 14 day"}, "Mus musculus [6]": {"test_system": "Mus musculus", "test": "Anti-inflammatory activity against MOG35-55-induced experimental autoimmune encephalomyelitis C57BL/6 mouse model assessed as reduction in serum Th1 cytokine level by measuring reduction in IL-2 level at 0.3 mg/kg/day, ig for 14 days starting from 12th day of immunization by ELISA", "type": "functional, organism-based", "details": "time 14.0 day"}, "Mus musculus [7]": {"test_system": "Mus musculus", "test": "Anti-inflammatory activity against MOG35-55-induced experimental autoimmune encephalomyelitis C57BL/6 mouse model assessed as reduction in serum monokines level by measuring reduction in IL-6 level at 0.3 mg/kg/day, ig for 14 days starting from 12th day of immunization by ELISA", "type": "functional, organism-based", "details": "time 14.0 day"}, "Mus musculus [8]": {"test_system": "Mus musculus", "test": "Anti-inflammatory activity against MOG35-55-induced experimental autoimmune encephalomyelitis C57BL/6 mouse model assessed as reduction in serum chemokines level by measuring reduction in CXCL1 level at 0.3 mg/kg/day, ig for 14 days starting from 12th day of immunization by ELISA", "type": "functional, organism-based", "details": "time 14.0 day"}, "Mus musculus [9]": {"test_system": "Mus musculus", "test": "Anti-inflammatory activity against MOG35-55-induced experimental autoimmune encephalomyelitis C57BL/6 mouse model assessed as methylation of CpG sites of […] gene promoter in brain at […], ig for 14 days starting from 12th day of immunization by PCR analysis (reference value: 13.1 +/-8%)", "type": "functional", "details": "time 14 day"}, "Mus musculus [10]": {"test_system": "Mus musculus", "test": "Anti-inflammatory activity against MOG35-55-induced experimental autoimmune encephalomyelitis C57BL/6 mouse model assessed as methylation of CpG sites of IL18 gene promoter in brain at […], ig for 14 days starting from 12th day of immunization by PCR analysis (reference value: 29.2 +/-8%)", "type": "functional", "details": "time 14 day"}, "Mus musculus [11]": {"test_system": "Mus musculus", "test": "Anti-inflammatory activity against MOG35-55-induced experimental autoimmune encephalomyelitis C57BL/6 mouse model assessed as methylation of CpG sites of SOCS5 gene promoter in brain at […], ig for 14 days starting from 12th day of immunization by PCR analysis (reference value: 10.6 +/-4%)", "type": "functional", "details": "time 14 day"}, "[12]": {"test": "Toxicity in C57BL/6 mouse assessed as serum LDH activity at 600 mg/kg/day, ig for 14 days by colorimetric analysis (reference value: 5.96 +/-1.08 U/ml)", "type": "organism-based", "details": "in vivo, po, 336 h, time 14 day"}, "Mus musculus [13]": {"test_system": "Mus musculus", "test": "Anti-inflammatory activity against MOG35-55-induced experimental autoimmune encephalomyelitis C57BL/6 mouse model assessed as fold change in CCL5 gene expression in brain at 600 mg/kg/day, ig for 14 days starting from 12th day of immunization by RT-qPCR analysis relative to control", "type": "functional", "details": "time 14 day"}, "Mus musculus [14]": {"test_system": "Mus musculus", "test": "Anti-inflammatory activity against MOG35-55-induced experimental autoimmune encephalomyelitis C57BL/6 mouse model assessed as fold change in CCL5 gene expression in brain at 300 mg/kg/day, ig for 14 days starting from 12th day of immunization by RT-qPCR analysis relative to control", "type": "functional", "details": "time 14 day"}, "Mus musculus [15]": {"test_system": "Mus musculus", "test": "Anti-inflammatory activity against MOG35-55-induced experimental autoimmune encephalomyelitis C57BL/6 mouse model assessed as fold change in TGFB1 gene expression in brain at 300 mg/kg/day, ig for 14 days starting from 12th day of immunization by RT-qPCR analysis relative to control", "type": "functional", "details": "time 14 day"}, "Mus musculus [16]": {"test_system": "Mus musculus", "test": "Anti-inflammatory activity against MOG35-55-induced experimental autoimmune encephalomyelitis C57BL/6 mouse model assessed as fold change in C1S gene expression in brain at 300 mg/kg/day, ig for 14 days starting from 12th day of immunization by RT-qPCR analysis relative to control", "type": "functional", "details": "time 14 day"}, "Mus musculus [17]": {"test_system": "Mus musculus", "test": "Anti-inflammatory activity against MOG35-55-induced experimental autoimmune encephalomyelitis C57BL/6 mouse model assessed as fold change in H2EB1 (HLA-DRB1) gene expression in brain at 300 mg/kg/day, ig for 14 days starting from 12th day of immunization by RT-qPCR analysis relative to control", "type": "functional", "details": "time 14 day"}, "Mus musculus [18]": {"test_system": "Mus musculus", "test": "Anti-inflammatory activity against MOG35-55-induced experimental autoimmune encephalomyelitis C57BL/6 mouse model assessed as fold change in YWHAH gene expression in brain at 300 mg/kg/day, ig for 14 days starting from 12th day of immunization by RT-qPCR analysis relative to control", "type": "functional", "details": "time 14 day"}, "Mus musculus [19]": {"test_system": "Mus musculus", "test": "Anti-inflammatory activity against MOG35-55-induced experimental autoimmune encephalomyelitis C57BL/6 mouse model assessed as reduction in serum Th1 cytokine level by measuring reduction in TNF-alpha level at 600 mg/kg/day, ig for 14 days starting from 12th day of immunization by ELISA", "type": "functional, organism-based", "details": "time 14.0 day"}, "Mus musculus [20]": {"test_system": "Mus musculus", "test": "Anti-inflammatory activity against MOG35-55-induced experimental autoimmune encephalomyelitis C57BL/6 mouse model assessed as reduction in serum Th1 cytokine level by measuring reduction in IL-2 level at 600 mg/kg/day, ig for 14 days starting from 12th day of immunization by ELISA", "type": "functional, organism-based", "details": "time 14.0 day"}, "Mus musculus [21]": {"test_system": "Mus musculus", "test": "Anti-inflammatory activity against MOG35-55-induced experimental autoimmune encephalomyelitis C57BL/6 mouse model assessed as reduction in serum chemokines level by measuring reduction in […] level at 600 mg/kg/day, ig for 14 days starting from 12th day of immunization by ELISA", "type": "functional, organism-based", "details": "time 14.0 day"}, "Mus musculus [22]": {"test_system": "Mus musculus", "test": "Anti-inflammatory activity against MOG35-55-induced experimental autoimmune encephalomyelitis C57BL/6 mouse model assessed as methylation of CpG sites of IL13 gene promoter in brain at 600 mg/kg, ig for 14 days starting from 12th day of immunization by PCR analysis (reference value: 57.3 +/-8%)", "type": "functional", "details": "time 14 day"}, "Mus musculus [23]": {"test_system": "Mus musculus", "test": "Anti-inflammatory activity against MOG35-55-induced experimental autoimmune encephalomyelitis C57BL/6 mouse model assessed as methylation of CpG sites of TGFB1 gene promoter in brain at 600 mg/kg, ig for 14 days starting from 12th day of immunization by PCR analysis (reference value: 18.3 +/-4%)", "type": "functional", "details": "time 14 day"}}, "note": "Active and inactive are the calls of the source. No cut-off for these calls is given here.", "data": [{"smiles": "CCCCCCCCc1ccc(CCC(N)(CO)CO)cc1", "note": "[FINGOLIMOD]", "values": [{"measurement": "fold change (FC)", "setting": "Mus musculus [1]", "result": 1.87}, {"measurement": "fold change (FC)", "setting": "Mus musculus [2]", "result": 1.92}, {"measurement": "fold change (FC)", "setting": "Mus musculus [3]", "result": -1.1}, {"measurement": "fold change (FC)", "setting": "Mus musculus [4]", "result": 4.34}, {"measurement": "Activity", "setting": "Mus musculus [5]", "result": 46.6, "unit": "%"}, {"measurement": "Activity", "setting": "Mus musculus [6]", "result": "Active"}, {"measurement": "Activity", "setting": "Mus musculus [7]", "result": "Active"}, {"measurement": "Activity", "setting": "Mus musculus [8]", "result": "Active"}, {"measurement": "Activity", "setting": "Mus musculus [9]", "result": 19, "unit": "%"}, {"measurement": "Activity", "setting": "Mus musculus [10]", "result": 29.5, "unit": "%"}, {"measurement": "Activity", "setting": "Mus musculus [11]", "result": 8.8, "unit": "%"}]}, {"smiles": "CCCCCCCCCCCCCCCCCCCCCCCCC(=O)O[C@H]1CC[C@]2(C)[C@H]3CC=C4[C@@H]5CC(C)(C)CC[C@]5(CO)CC[C@@]4(C)[C@]3(C)CC[C@H]2C1(C)C", "values": [{"measurement": "Activity", "setting": "[12]", "result": 5.37, "unit": "U/ml"}, {"measurement": "fold change (FC)", "setting": "Mus musculus [13]", "result": 1.27}, {"measurement": "fold change (FC)", "setting": "Mus musculus [14]", "result": 2.69}, {"measurement": "fold change (FC)", "setting": "Mus musculus [15]", "result": -1.51}, {"measurement": "fold change (FC)", "setting": "Mus musculus [16]", "result": 1.63}, {"measurement": "fold change (FC)", "setting": "Mus musculus [17]", "result": 2.83}, {"measurement": "fold change (FC)", "setting": "Mus musculus [18]", "result": -1.38}, {"measurement": "Activity", "setting": "Mus musculus [19]", "result": "Active"}, {"measurement": "Activity", "setting": "Mus musculus [20]", "result": "Active"}, {"measurement": "Activity", "setting": "Mus musculus [21]", "result": "Active"}, {"measurement": "Activity", "setting": "Mus musculus [22]", "result": 47.9, "unit": "%"}, {"measurement": "Activity", "setting": "Mus musculus [23]", "result": 39.8, "unit": "%"}]}]}
